Assay results published in patent US7595074B2, “Polymeric antioxidants” (University of Massachusetts Lowell, priority 2002, dated 2009).
Where two headings read alike, the source gives them in different places.

Legend:
[1] = bleaching of a beta-carotene/linoleate model system (antioxidant activity); type: biochemical; parameters: % Antioxidant Activity of Monomer / % Antioxidant Activity: concentration or dose not given beside the values; conditions: for % Antioxidant Activity: compounds of each step of the Example 8 scheme, procedure of Food Chemistry 73:285-290 (2001)
Experimental: The antioxidant activity of monomers and enzymatically-prepared polymeric antioxidants was compared by measuring the bleaching of a beta-carotene system. In the model system, beta-carotene undergoes rapid discoloration in the absence of an antioxidant. The assay and measurements were conducted according to the procedure described in Jayaprakasha, G. K., et al. Food Chemistry 73: 285-290 (2001) and Hidalgo, M. E., et al. Phytochemistry 37: 1585-1587 (1994), the contents of which are incorporated herein by reference. Briefly, beta-carotene (0.2 mg), linoleic acid (20 mg), and 200 mg of Tween-40 (polyoxyethylene sorbitan monopalmitate) were dissolved in 0.5 mL of chloroform. The chloroform was removed under vacuum and the resulting mixture was immediately diluted with 10 mL of distilled water and mixed well for 1-2 minutes. The resulting emulsion was further made up to 50 mL with oxygenated water. Aliquots (4 mL) of the emulsion were mixed with 0.2 mL of test sample (monomer or polymer) in dimethylformamide (DMF), so that there were 100 ppm of monomer or polymer present in the aliquot. A control was prepared by mixing 0.2 mL of DMF with 4 mL of the above emulsion. The samples were incubated at 50° C. The absorbance of all samples at 470 nm was taken initially (t=0) and continued up to 180 minutes at 15 minute intervals. Antioxidant activity is calculated based on the formula: Antioxidant Activity=100(1−(Ao−At)/(A^1o−A^1t)), • Ao=absorbance of the test sample at zero time, • A^1o=absorbance of the control at zero time, • At=absorbance of the test sample at time t (180 min), and • A^1t=absorbance of the control at time t (180 min).
The antioxidant activity of several other antioxidant monomer/polymer pairs were determined by the procedure described in Example 3.
The antioxidant activity of compounds formed in each step of the scheme shown above were measured according to the procedure published in Food Chemistry 73:285-290 (2001).

[2] = thermogravimetric analysis (TGA); type: physicochemical; conditions: thermal stability, FIG. 4
[3] = oil stability index of cooking oil heated to frying temperature
Experimental: (§1) The oils were heated to frying temperature (190° C.) and their oil stability index was measured. The oil stability index (American Oil Chemists' Society Cd 126-92) measures the amount of time before the oil begins to rapidly oxidize. A greater length of time indicates an oil with a greater antioxidant capacity, which likely corresponds to a longer potential shelf life.

[4] = as above; remark: listed apart in the source
Experimental: as §1

[5] = quoted for comparison; cited from earlier work
[6] = tested on: Sprague-Dawley albino rats; conditions: rat, in vivo
Experimental: A study was conducted based upon the standards of OECD Guidelines for Testing of Chemicals, OECD 423. Ten Sprague-Dawley albino rats were administered with 2000 mg/kg body weight poly(TBHQ) as a single dose via gastric gavage. After administration, the animals were returned to their cages and observed for signs of toxicity for up to 14 days. Body weights were determined prior to dosing and on the day of death or prior to terminal sacrifice. A second study was performed using three female rats with 500 mg/kg body weight of poly(TBHQ).

[7] = monomer, 100 ppm, 50° C., 180 min, Antioxidant Activity=100(1−(Ao−At)/(A1o−A1t))
[8] = monomer, procedure of Example 3

COc1ccc(O)cc1C(C)(C)C [2-tert-butyl-4-hydroxyanisole]
Monomer Activity [1, 7]: 44.24
temperature up to which there was about 15% mass loss (TGA) [2]: about 125 °C

OCc1cccc(O)c1 [3-hydroxybenzyl alcohol]
Monomer Activity [1, 7]: 1.0
% Antioxidant Activity of Monomer [1, 8]: 1.0%

Oc1ccc(N=Nc2ccccc2)cc1 [4-azophenylphenol]
Monomer Activity [1, 7]: 5.4
% Antioxidant Activity of Monomer [1, 8]: 5.4%

CC(C)(C)c1cc(O)ccc1O [TBHQ, tert-butyl-hydroquinone]
% Antioxidant Activity [1]: 6.72%
oil stability index (time before the oil begins to rapidly oxidize) ([3]; Canola oil, 190° C., equal concentration of phenol moieties): 10.8 h
oil stability index (time before the oil begins to rapidly oxidize) ([4]; Corn oil, 190° C., equal concentration of phenol moieties): 6.6 h

CC(=O)Oc1ccc(OC(C)=O)c(C(C)(C)C)c1 [b]
% Antioxidant Activity [1]: 2.45%

CC(=O)Oc1ccc(O)cc1C(C)(C)C [c, 4-acetyloxy-3-tert-butylphenol]
% Antioxidant Activity [1]: 7.9%

Oc1ccccc1 [phenol]
% Antioxidant Activity of Monomer [1]: 2.1%
Monomer Activity [1]: 2.1

[Cl-].[Na+] [sodium chloride]
oral LD50 [5]: about 3000 mg/kg

Poly(tert-butyl-hydroquinone) [Poly(TBHQ)]
oil stability index (time before the oil begins to rapidly oxidize) [3]: 19.2 h
oil stability index (time before the oil begins to rapidly oxidize) [4]: 9.0 h
female rats that died prior to completion of the study [6]: Three of the five
gross necropsy of surviving animals [6]: None of the surviving animals showed abnormal signs
necropsy finding in animals that did not survive 14 days [6]: the intestines were inflamed
overall toxicity [6]: relatively low toxicity to rats
survival [6]: survived the duration of the study
oral LD50 ([6]; po): 500 to 2000 mg/kg
